Reference: EP0381374A1, “Phosphodiesterase inhibitors” (LES LABORATOIRES BEECHAM S.A., priority 1989, dated 1990)

Key:
[1] = system: Canine cardiac myofibrillar Ca⁺⁺-dependent Mg⁺⁺ ATPase; experiment: Measurement of myofibrillar Ca++-dependent Mg++-ATPase activity; type: biochemical; settings: Concentration: 3 x 10⁻⁵ molar; for Shift in pCa50 (ΔpCa50): shift of the pCa giving 50% of the maximal control ATPase activity, 21°C, pH 7.0; for Max ATPase activity(%): percent change of ATPase activity for pCa = 5.47
Protocol: 1. Measurement of myofibrillar Ca++-dependent Mg++-ATPase activity
The effect on Ca++sensitivity and on maximal activity of myofibrillar Ca++-dependent Mg++-ATPase was determined on canine cardiac myofibrils.
(a) Contractile protein preparation
Cardiac myofibrils free of membrane contaminants were prepared from left ventricular tissue of dog hearts using a modification of the method described by SOLARO et al, Biochem. Biophys. Acta, 245, 259-262, (1971). Before centrifugation, the heart homogenate was filtered through gauze.
After Triton X-100 treatments, the myofibrillar fraction was washed once by resuspension and centrifugation in 10 volumes of 1 mM EGTA, […] KCl, 30 mM imidazole, 2 mM MgCl₂, pH 7.0. The pellet was then washed three times in 10 volumes of the same buffer without EGTA. Before the last centrifugation, the suspension of myofibrils was filtered through a stainless steel sieve with 0.25 mm meshes.
Myofibrils were kept in pellet overnight. Before use, the pellet was suspended in a small amount of buffer, the protein concentration was determined by the method of BRADFORD M., Anal. Biochem., 1976, 72, 248 and adjusted in order to have a concentration between 6 and 7mg/ml, using gamma globuline as standard.
(b) Myofibrillar ATPase activity
Ca++-dependent myfibrillar ATPase activity was determined at 21 °C, pH 7.0, by measuring the rate of release of inorganic phosphate. All assays were performed within 24hrs. of final purification, using the method described by SOLARO and RUEGG, CIRC. RES., 51, 290-4,(1982). Reaction mixtures (4ml) containing 0.6 - 0.7 mg/ml myofibrillar protein, 80mM KCl, 20 mM imidazole, 3 mM MgCl₂, 1 mM EGTA, the desired amount of CaCl₂, and the indicated concentration of drug or appropriate vehicle were preincubated for 6 min. prior to assay. The amount of CaCl₂ was varied between 0 and 0.9 mM and the pca (-log free Ca++) computed using 2.514 x 10⁶ M⁻¹ as the apparent affinity of Ca++ for EGTA at pH 7.0.
Reactions were initiated by the addition of Na₂ATP to final concentration of 2 mM. After an incubation period of 12 min., reactions were quenched by the addition of an equal volume of ice-cold 10% trichloroacetic acid. The protein was pelleted by centrifugation (2000g, 15 min.) and Pi was assayed in the supernatant fraction using a modification of the method described by LANZETTA et al, Anal. Biochem., 100, 95-97, (1979).
The following solutions were prepared: • (1) 3.7% ammonium heptamolybdate in 0.12 N H₂SO₄ • (2) 0.074% malachite green oxalate in 1% polyvinylic alcohol.
The colour reagent was prepared by mixing an equal volume of solution (1) and (2) 15 min. before the assay. For the assay, 1700 µl of 1% H₂SO₄ and 1 ml of colour reagent were added to 100 µl of sample. Colour development occurred at room temperature for 30 min. and was quenched by the addition of 200 µl of 1 M tri-potassium citrate. The absorbance was measured at 620 millimicrons.
The effect of each compound, tested at the indicated concentration, on the relation between pCa and percent activation was determined taking 100% for the maximum ATPase activity obtained with vehicle alone. The effect on Ca++ sensitivity was quantified by measuring the shift of the pCa giving 50% of the maximal control ATPase activity.
The effect on maximal ATPase activity was expressed as the percent change of ATPase activity for pCa = 5.47.

[2] = target: T1, CGI-PDE (i.e., c-GMP-inhibited PDE) (Canis lupus familiaris, UniProt A0A8I3NYE0); experiment: Inhibition of cardiac phosphodiesterases, Fraction IV (CGI-PDE); type: biochemical; settings: canine left ventricle PDE Fraction IV
T1 construct: isoforms of canine left ventricle were separated by column ion exchange chromatography; from tissue; host or cells: canine left ventricle, Fractogel TSK DEAE 650 fraction IV
T1 sequence (A0A8I3NYE0 1-1135): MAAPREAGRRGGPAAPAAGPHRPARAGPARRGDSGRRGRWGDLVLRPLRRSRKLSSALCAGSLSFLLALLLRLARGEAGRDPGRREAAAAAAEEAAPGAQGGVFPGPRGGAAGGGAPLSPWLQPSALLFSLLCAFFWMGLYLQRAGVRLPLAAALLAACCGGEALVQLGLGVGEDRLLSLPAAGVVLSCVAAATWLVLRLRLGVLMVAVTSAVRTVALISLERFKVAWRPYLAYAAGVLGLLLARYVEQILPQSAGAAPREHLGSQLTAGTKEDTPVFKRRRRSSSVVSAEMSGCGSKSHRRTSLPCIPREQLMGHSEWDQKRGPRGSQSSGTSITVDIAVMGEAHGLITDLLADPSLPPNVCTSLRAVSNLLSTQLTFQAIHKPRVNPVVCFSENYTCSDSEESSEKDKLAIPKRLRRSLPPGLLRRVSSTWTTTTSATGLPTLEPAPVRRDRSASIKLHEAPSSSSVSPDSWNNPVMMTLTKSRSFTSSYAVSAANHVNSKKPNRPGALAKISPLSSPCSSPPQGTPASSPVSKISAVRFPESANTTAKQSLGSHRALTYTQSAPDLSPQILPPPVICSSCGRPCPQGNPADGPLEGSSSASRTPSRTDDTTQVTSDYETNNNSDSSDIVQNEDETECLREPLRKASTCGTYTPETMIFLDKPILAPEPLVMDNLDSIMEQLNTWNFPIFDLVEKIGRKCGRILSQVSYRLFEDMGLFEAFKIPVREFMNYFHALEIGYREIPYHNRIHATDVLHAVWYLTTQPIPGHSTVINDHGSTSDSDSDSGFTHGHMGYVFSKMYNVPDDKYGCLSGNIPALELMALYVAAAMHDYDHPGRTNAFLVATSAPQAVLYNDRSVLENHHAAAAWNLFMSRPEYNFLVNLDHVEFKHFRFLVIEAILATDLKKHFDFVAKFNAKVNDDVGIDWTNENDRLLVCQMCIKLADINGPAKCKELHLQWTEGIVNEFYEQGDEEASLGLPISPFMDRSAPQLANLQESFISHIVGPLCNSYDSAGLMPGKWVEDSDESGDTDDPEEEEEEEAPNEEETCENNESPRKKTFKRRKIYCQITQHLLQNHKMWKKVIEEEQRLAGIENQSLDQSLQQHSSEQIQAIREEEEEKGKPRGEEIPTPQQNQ
Protocol: 2. Inhibition of Cardiac Phosphodiesterases
The phosphodiesterases (PDE) isoforms of canine left ventricle were separated by column ion exchange chromatography, using a minor modification of the method previously described by Alvarez et al. (Mol. Pharmacol., 1986, 29, 554-560). A Fractogel TSK DEAE 650 column was used and the PDEs were eluted using a continuous sodium acetate gradient (50 to 500 mM). The flow rate was 1.2ml/min and fractions of c.a. 8ml were collected as described by Weishaar et al. (Biochem. Pharmacol., 1986, 35, 787-800).
Four isoforms were identified • i) Fraction I or CAM-PDE (i.e. Ca⁺⁺/calmodulin-activated PDE), which hydrolyses both c-AMP and c-GMP, and presents a low Km for c-AMP over a wide range of concentration. It is activated by Ca⁺⁺/calmodulin. • ii) Fraction II or CGS-PDE (i.e. c-GMP-stimulated PDE), which hydrolyses more specifically c-GMP, and presents a high Km, for c-AMP over a wide range of concentration. It is stimulated by c-GMP. • iii) Fraction III or NCGI-PDE (i.e. not c-GMP-inhibited PDE), which hydrolyses more specifically c-AMP and presents two relatively low Km sites of affinity. It is not inhibited by c-GMP. iv) Fraction IV or CGI-PDE (i.e., c-GMP-inhibited PDE), which also hydrolyses more specifically c-AMP, and also presents two relatively low Km site of affinity. It is inhibited by c-GMP.
The inhibitory effect of the test compounds was expressed as the IC₅₀, i.e. the concentration which inhibits the activity by 50%, this value being expressed in micromoles.

Molecule	Shift in pCa50 (ΔpCa50) [1]	IC50 [2]	Max ATPase activity(%) [1]
CC1SC(=O)NN=C1c1ccc2c(c1)C(C)(C)C(=O)N2Cc1ccccc1 (stereo not drawn) [Example 5, 1,3-Dihydro-5-(3,6-dihydro-6-methyl-2-oxo-2H-1,3,4-thiadiazin-5-yl)-3,3-dimethyl-1-(phenylmethyl)-2H-indol-2-one]	0.38	–	–
CC1SC(=O)NN=C1c1ccc2c(c1)C(C)(C)C(=O)N2c1ccccc1 (stereo not drawn) [Example 7, 1,3-Dihydro-5-(3,6-dihydro-6-methyl-2-oxo-2H-1,3,4-thiadiazin-5-yl)-3,3-dimethyl-1-phenyl-2H-indol-2-one]	0.20	–	–
CC1SC(=O)NN=C1c1ccc2c(c1)C(C)(C)C(=O)N2C(=O)Nc1ccccc1 (stereo not drawn) [Example 2, 2,3-Dihydro-5-(3,6-dihydro-6-methyl-2-oxo-2H-1,3,4-thiadiazin-5-yl)-3,3-dimethyl-2-oxo-N-phenyl-1H-indole-1-carboxamide]	–	15 µM	–
O=C1NN=C(c2ccc3c(c2)C(C2CCCCC2)C(=O)N3)CS1 (stereo not drawn) [Example 12, 3-Cyclohexyl-1,3-dihydro-5-(3,6-dihydro-2-oxo-2H-1,3,4-thiadiazin-5-yl)-2H-indol-2-one]	0.49	–	–
O=C1NN=C(c2ccc3c(c2)C(Sc2ccccc2)C(=O)N3)CS1 (stereo not drawn) [Example 11, 1,3-Dihydro-5-(3,6-dihydro-2-oxo-2H-1,3,4-thiadiazin-5-yl)-3-phenylthio-2H-indol-2-one]	0.21	–	–

More lines, now with the values ahead:

Shift in pCa50 (ΔpCa50) [1]	IC50 [2]	Max ATPase activity(%) [1]	Molecule
0.99	–	–	CC1SC(=O)NN=C1c1ccc2c(c1)C(C1CCCCC1)C(=O)N2 (stereo not drawn) [Example 10, 3-Cyclohexyl-1,3-dihydro-5-(3,6-dihydro-6-methyl-2-oxo-2H-1,3,4-thiadiazin-5-yl)-2H-indol-2-one]
0.32	–	+11%	1-Cyclohexylmethyl-5-(3,6-dihydro-6-methyl-2-oxo-2H-1,3,4-thiadiazin-5-yl)-1,3-dihydro-3,3-dimethyl-2H-indol-2-one [Example 9]
0.23	6.7 µM	–	CCOC(=O)CN1C(=O)C(C)(C)c2cc(C3=NNC(=O)SC3C)ccc21 (stereo not drawn) [Example 3, Ethyl 2,3-dihydro-5-(3,6-dihydro-6-methyl-2-oxo-2H-1,3,4-thiadiazin-5-yl)-3,3-dimethyl-2-oxo-N-1H-indole-1-acetate]
0.68	3.2 µM	–	CC1SC(=O)NN=C1c1ccc2c(c1)C(c1ccccc1)C(=O)N2 (stereo not drawn) [Example 4, 1,3-Dihydro-5-(3,6-dihydro-6-methyl-2-oxo-2H-1,3,4-thiadiazin-5-yl)-3-phenyl-2H-indol-2-one]
0.19	0.87 µM	-18%	CC1SC(=O)NN=C1c1ccc2c(c1)C1(CCCC1)C(=O)N2C(=O)c1ccc(N)cc1.Cl (stereo not drawn) [Example 1, 1′-[(4-Aminophenyl)carbonyl]-5′-(3,6-dihydro-6-methyl-2-oxo-2H-1,3,4-thiadiazin-5-yl)-spiro[cyclopentane-1,3′-[3H]-indol]-2′(1′H)-one, hydrochloride]
